# Measurements from patent US20070054266A1, “Chemical sensor system” (NATIONAL INSTITUTE of ADVANCED INDUSTRIAL SCIENCE and …, priority 2002, published 2007).
# How the values were obtained:
# [1] = tested on: olfactory cells; assay: Responsiveness of 2,740 isolated olfactory cells to odor molecules (fura-2 calcium fluorescence); type: cell-based, mouse; settings: for number of olfactory cells responding, with higher sensitivity than others and to the same extent, to both pulegone and (−)menthone / number of olfactory cells responding, with the highest sensitivity and to the same extent, to both R(−)carvone and S(+)carvone / number of olfactory cells sensitively and selectively responding: of 2,740 olfactory cells investigated
# Text: (§1) It is reported that, in mice, the olfactory receptor is expressed is olfactory cells and detects and identifies odor molecules (Cell 96: 713-723 (1999) and the like). It is reported that there are four zones indicated by No. 1 to 4 in order from the dorsum to the ventral olfactory epithelium wherein olfactory cells are distributed and each olfactory receptor is limitedly expressed in any one of the four zones (Science 286 (5440): 706-711 (1999) and the like). As it is estimated by gene analysis estimates that there are about 1,000 types of olfactory receptors, the responsiveness to specific odor molecules of the olfactory cells sampled in statistically significant number from the four zones is equivalent. Therefore, in the present invention, the responsiveness of 2,740 olfactory cells, about 2.7 times as many as 1,000 specific types of cells, was investigated. It cannot be declared that the statistical significance is maintained for all zones, as the number of types of olfactory receptor included in each zone is not clear. […] As a result, 4 olfactory cells sensitively and selectively responding to R(−)carvone of spearmint odor of a typical olfactory source, 18 olfactory cells sensitively and selectively responding to S(+)carvone of caraway odor of another typical olfactory source, 3 olfactory cells responding, with higher sensitivity than others and to the same extent, to both pulegone and (−)menthone commonly having mint odor of another typical olfactory source, and 3 olfactory cells responding, with the highest sensitivity and to the same extent, to both R(−)carvone and S(+)carvone commonly having sweet odor of another typical olfactory source were found. Respectively, 2, 2, 1 and 1 type(s) of genes identified by RT-PCR determined from a single cell among such olfactory cells were found and described in the present invention.
# The olfactory epithelium was quickly excised from a mouse euthanized by decapitation under anesthesia and divided into small pieces. These pieces were trypsinized to cleave intercellular junctions, and a sample of viable multiple mouse olfactory cells isolated from cells adhered to a cover slip by softly putting the treated pieces onto the cover slip taking care not to rupture them. Calcium-sensitive fluorescent dye fura-2 was intracellularly loaded on the sample, a solution of each odor molecule was administered, and the transient increase in intracellular calcium concentration triggered by the olfactory cells responding was detected by measuring and analysing the change in fura-2 fluorescence intensity within the cell using a microscope (Nikon), high-sensitive SIT video camera and image analysis device Argus-50 (Hamamatsu Photonics for both of the latter two), allowing the analysis individual cells response to specific odor molecules. Olfactory cell with a confirmed response were individually sampled with a micropipette containing 4 μl of cell lysis mix (1×MMLV buffer (GIBCO BRL), 0.5% NP-40, 290 U/ml RNA guard (Pharmacia), 300 U/ml Prime RNase inhibitor (Eppendorf), 10 μM each dNTP, 200 ng/ml pd(T)25-30) under microscopy and moved into a tube for PCR. After the tube was incubated at 65° C. for 1 minute, 0.5 μl of RT mixed solution containing 50 U of MMLV reverse transcriptase (GIBCO BRL) and 0.5 U of AMV reverse transcriptase (GIBCO BRL) was added to each tube, followed by reverse-transcription at 37° C. for 30 minutes and treatment at 65° C. for 10 minutes prior to the termination of reaction. To form polyA tails, 5 μl of 2×TdT buffer (GIBCO BRL), 1.5 mM DATP, and 3 U/μl Terminal deoxynucleotidyl transferase (GIBCO BRL) were added, followed by incubation at 37° C. for 15 minutes and treatment at 65° C. for 10 minutes prior to the termination of reaction. […]
# [2] = tested on: olfactory receptor car-b85; assay: Odor response of olfactory cell expressing olfactory receptor car-b85 (fura-2 calcium fluorescence); type: cell-based, mouse; settings: car-b85, odor quality Mint; for Response at 10 μM: responders at 10 μM; for Response at 1 μM: responders at 1 μM with rank order
# Text: It is reported that, in mice, the olfactory receptor is expressed is olfactory cells and detects and identifies odor molecules (Cell 96: 713-723 (1999) and the like). It is reported that there are four zones indicated by No. 1 to 4 in order from the dorsum to the ventral olfactory epithelium wherein olfactory cells are distributed and each olfactory receptor is limitedly expressed in any one of the four zones (Science 286 (5440): 706-711 (1999) and the like). As it is estimated by gene analysis estimates that there are about 1,000 types of olfactory receptors, the responsiveness to specific odor molecules of the olfactory cells sampled in statistically significant number from the four zones is equivalent. Therefore, in the present invention, the responsiveness of 2,740 olfactory cells, about 2.7 times as many as 1,000 specific types of cells, was investigated. It cannot be declared that the statistical significance is maintained for all zones, as the number of types of olfactory receptor included in each zone is not clear. […] Respectively, 2, 2, 1 and 1 type(s) of genes identified by RT-PCR determined from a single cell among such olfactory cells were found and described in the present invention. The olfactory epithelium was quickly excised from a mouse euthanized by decapitation under anesthesia and divided into small pieces. These pieces were trypsinized to cleave intercellular junctions, and a sample of viable multiple mouse olfactory cells isolated from cells adhered to a cover slip by softly putting the treated pieces onto the cover slip taking care not to rupture them. Calcium-sensitive fluorescent dye fura-2 was intracellularly loaded on the sample, a solution of each odor molecule was administered, and the transient increase in intracellular calcium concentration triggered by the olfactory cells responding was detected by measuring and analysing the change in fura-2 fluorescence intensity within the cell using a microscope (Nikon), high-sensitive SIT video camera and image analysis device Argus-50 (Hamamatsu Photonics for both of the latter two), allowing the analysis individual cells response to specific odor molecules. […] The olfactory receptors with high sensitivity to specific odor qualities are shown as follows.
# [3] = tested on: olfactory receptor car-n266; assay: Odor response of olfactory cell expressing olfactory receptor car-n266 (fura-2 calcium fluorescence); type: cell-based, mouse; settings: car-n266, Sweet odor; for Response at 1 μM: responders at 1 μM; for Response at 10 μM: responders at 10 μM
# Text: as §1
# (§2) The olfactory epithelium was quickly excised from a mouse euthanized by decapitation under anesthesia and divided into small pieces. […] Calcium-sensitive fluorescent dye fura-2 was intracellularly loaded on the sample, a solution of each odor molecule was administered, and the transient increase in intracellular calcium concentration triggered by the olfactory cells responding was detected by measuring and analysing the change in fura-2 fluorescence intensity within the cell using a microscope (Nikon), high-sensitive SIT video camera and image analysis device Argus-50 (Hamamatsu Photonics for both of the latter two), allowing the analysis individual cells response to specific odor molecules. […]
# [4] = tested on: olfactory receptor car-n272; assay: Odor response of olfactory cell expressing olfactory receptor car-n272 (fura-2 calcium fluorescence); type: cell-based, mouse; settings: car-n272, odor quality Spearmint; for Response at 10 μM: odor molecules listed are those giving a response at 10 μM
# Text: (§3) It is reported that, in mice, the olfactory receptor is expressed is olfactory cells and detects and identifies odor molecules (Cell 96: 713-723 (1999) and the like). It is reported that there are four zones indicated by No. 1 to 4 in order from the dorsum to the ventral olfactory epithelium wherein olfactory cells are distributed and each olfactory receptor is limitedly expressed in any one of the four zones (Science 286 (5440): 706-711 (1999) and the like). As it is estimated by gene analysis estimates that there are about 1,000 types of olfactory receptors, the responsiveness to specific odor molecules of the olfactory cells sampled in statistically significant number from the four zones is equivalent. Therefore, in the present invention, the responsiveness of 2,740 olfactory cells, about 2.7 times as many as 1,000 specific types of cells, was investigated. It cannot be declared that the statistical significance is maintained for all zones, as the number of types of olfactory receptor included in each zone is not clear. […] Respectively, 2, 2, 1 and 1 type(s) of genes identified by RT-PCR determined from a single cell among such olfactory cells were found and described in the present invention.
# as §2
# [5] = tested on: olfactory receptor car-c5; assay: Odor response of olfactory cell expressing olfactory receptor car-c5 (fura-2 calcium fluorescence); type: cell-based, mouse; settings: car-c5, odor quality Spearmint; for Response at 10 μM: responders at 10 μM
# Text: as §3, §2
# [6] = tested on: olfactory receptor C257; assay: Response characteristics of olfactory receptor C257 expressed in cultured cell CHO; type: cell-based; settings: sensitivity one order of magnitude lower than in olfactory receptor cell (FIG. 16)
# Text: Next, in this Example, response characteristics of olfactory receptor C257 were studied. A) is the case wherein it is expressed in olfactory receptor cell, and B) is the case wherein it is expressed in cell established and cultured cell CHO. […] However, response to sCa was not apparent (FIG. 16). […] Regarding discrimination, characteristics of the olfactory receptor can be considered to be expressed, independent of the cell type. However, regarding sensitivity and response starting time, they are change with regards to all odor molecules depending on the cell type. Therefore, it is necessary to evaluate the stimulation quality, paying attention to this point.
# [7] = tested on: olfactory receptor car-b153; assay: Odor response of olfactory cell expressing olfactory receptor car-b153 (fura-2 calcium fluorescence); type: cell-based, mouse; settings: car-b153, odor quality Caraway; responders at 10 μM
# Text: (§4) It is reported that, in mice, the olfactory receptor is expressed is olfactory cells and detects and identifies odor molecules (Cell 96: 713-723 (1999) and the like). It is reported that there are four zones indicated by No. 1 to 4 in order from the dorsum to the ventral olfactory epithelium wherein olfactory cells are distributed and each olfactory receptor is limitedly expressed in any one of the four zones (Science 286 (5440): 706-711 (1999) and the like). […] Respectively, 2, 2, 1 and 1 type(s) of genes identified by RT-PCR determined from a single cell among such olfactory cells were found and described in the present invention.
# as §2
# [8] = tested on: olfactory receptor car-b161; assay: Odor response of olfactory cell expressing olfactory receptor car-b161 (fura-2 calcium fluorescence); type: cell-based, mouse; settings: car-b161, odor quality Caraway; responders at 10 μM
# Text: as §4, §2
# [9] = of about 70-100 kinds of receptors
# [10] = 1 μM, cells selective for the respective carvone (FIG. 8)
Compound,Response at 10 μM [2],Response at 1 μM [2],"number of olfactory cells responding, with higher sensitivity than others and to the same extent, to both pulegone and (−)menthone [1] [olfactory cells]",Response at 1 μM [3],Response at 10 μM [3],Response at 10 μM [4],Response at 10 μM [5],response of olfactory receptor C257 when expressed in CHO [6],"number of selective cells responding at 1 μM [1, 10]","number of olfactory cells responding, with the highest sensitivity and to the same extent, to both R(−)carvone and S(+)carvone [1] [olfactory cells]",number of olfactory cells sensitively and selectively responding [1] [olfactory cells],"fraction of the carvone-identifying olfactory receptors responding with relatively high sensitivity [1, 9]",other results
C=C(C)C1CC=C(C)C(=O)C1 (stereo not drawn) [carvone],–,–,–,–,–,–,–,–,–,–,–,–,"number of cells responding equally to both carvones at 1 μM ([1]; 1 μM): three; kinds of olfactory receptors functioning to identify carvone ([1]; corresponding to about 9.6% of about 1,000 kinds): 70-100 kinds; olfactory cells responding to carvone, share of the total ([1]; of 2,740 olfactory cells): 9.6%; number of olfactory cells responding to carvone ([1]; of 2,740 olfactory cells, carvone = both S(+)carvone and R(−)carvone): 263; fraction of the carvone-identifying olfactory receptors responding to both carvones equally with relatively high sensitivity [1, 9]: about ⅖"
"C=C(C)C1CCC(C)CC1O (stereo not drawn) [ip, 2-isopropenyl-5-methylcyclohexanol]",ip,–,–,–,–,–,–,–,–,–,–,–,–
"CC(C)[C@@H]1CC[C@@H](C)CC1=O [mn, (2S,5R)-2-isopropyl-5-methylcyclohexanone]",mn,"pu, mn > sCa, rCa",3,–,–,–,–,–,–,–,–,–,–
"CC(C)=C1CC[C@@H](C)CC1=O [pu, (R)-p-menth-4(8)-en-3-one]",pu,"pu, mn > sCa, rCa",3,–,–,–,–,–,–,–,–,–,–
"C=C(C)[C@@H]1CC=C(C)C(=O)C1 [rCa, R(−)-5-isopropenyl-2-methyl-2-cyclohexenon]",rCa,"pu, mn > sCa, rCa",–,rCa,rCa,rCa,rCa,high sensitivity could be confirmed,four,3,4,about ⅕,Response at 1 μM ([4]; odor molecules listed are those giving a response at 1 μM): rCa; Response at 1 μM ([5]; responders at 1 μM): rCa
"C=C(C)[C@H]1CC=C(C)C(=O)C1 [sCa, S(+)-5-isopropenyl-2-methyl-2-cyclohexenon]",sCa,"pu, mn > sCa, rCa",–,sCa,sCa,sCa,sCa,not apparent,two,3,18,about ⅕,"Response at 10 μM [7]: sCa; Response at 10 μM [8]: sCa; number of selective cells responding at 10 μM ([1]; 10 μM, cells selective for the respective carvone (FIG. 8)): seventeen"
